According to a compilation of properties of binary mixtures (doi:10.1016/j.jct.2020.106320):

Test: xn = mol fraction of the nth substance listed
Conditions: 100 kPa

CC[n+]1ccn(CCOC)c1.N#C[S-] + CCO
viscosity [mPa·s]
Conditions | x1 = 0.1 | x1 = 0.1999 | x1 = 0.3002 | x1 = 0.3995 | x1 = 0.5001 | x1 = 0.6 | x1 = 0.7 | x1 = 0.797 | x1 = 0.8964 | x1 = 1
288.15 K | 2.39 | 3.97 | 6.39 | 10.15 | 15.11 | 24.1 | 33.1 | 53.1 | 70.8 | 93.1
293.15 K | – | 3.53 | 5.59 | – | 12.79 | – | 27.1 | – | 55.6 | 70.8
298.15 K | 1.95 | 3.16 | – | 7.64 | 10.96 | 17.44 | 22.7 | 34.3 | 44.3 | 55.8
303.15 K | 1.77 | 2.85 | – | 6.7 | 9.52 | 14.4 | 19.4 | 28.2 | – | –
308.15 K | 1.613 | – | 3.97 | 5.93 | 8.32 | 12.12 | – | – | – | –
313.15 K | 1.476 | 2.34 | 3.58 | – | 7.34 | 10.4 | 14.37 | – | 24.7 | 29.7
318.15 K | 1.355 | – | 3.25 | 4.71 | 6.51 | 9.03 | 12.25 | 17.33 | 20.9 | 24.9

CCO + CC[n+]1ccn(CCOC)c1.N#C[S-]
x2 = 0
Conditions | viscosity [mPa·s]
288.15 K | 1.319
293.15 K | 1.194
298.15 K | 1.085
303.15 K | 0.988
313.15 K | 0.826
318.15 K | 0.757
